From PMC3622158 (Photochemistry and photobiology, 2013)

Columns and labels:
[1] = system: red blood cells (RBCs); assay: Fluorescence and bright field microscopy of RBCs and ghosts; format: cell-based; settings: Figure 2A; for association with RBCs prior to irradiation (fluorescence distribution): RBCs incubated with compound, fluorescence microscopy; for morphology of RBCs incubated with compound before irradiation: bright field microscopy
[2] = in aqueous solution; standards of the RNO assay; cited from earlier work
[3] = system: red blood cells (RBCs); assay: Photohemolysis assay of fluorescently labeled CPPs; format: cell-based; settings: singlet oxygen quencher/inhibitor added to TMR-TAT and RBCs; Figure 1B
[4] = system: red blood cells (RBCs)

Compound	association with RBCs prior to irradiation (fluorescence distribution) [1]	morphology of RBCs incubated with compound before irradiation [1]	singlet oxygen quantum yield [2]	effect on TMR-TAT mediated photohemolysis [3]	other results
CC1=C(CCC(=O)O)c2cc3[nH]c(cc4nc(cc5[nH]c(cc1n2)c(C)c5C(C)O)C(C)=C4C(C)O)c(C)c3CCC(=O)O (stereo not shown) [HP, hematoporphyrin]	strong fluorescence signals were present on the surface of the cells	formed echinocytes			
O=C1OC2(c3cc(I)c(O)c(I)c3Oc3c2cc(I)c(O)c3I)c2c(Cl)c(Cl)c(Cl)c(Cl)c21 [RB, Rose Bengal]	strong fluorescence signals were present on the surface of the cells	formed echinocytes	0.76		
CC(/C=C/C=C(\C)C(=O)O)=C\C=C\C=C(C)\C=C\C=C(/C)C(=O)O [crocetin]				significant decrease in photohemolytic activity	
O=C1OC2(c3ccccc31)c1cc(Br)c(O)c(Br)c1Oc1c2cc(Br)c(O)c1Br [eosin Y]			0.57		
CC(=O)Oc1c(C)c(C)c2c(c1C)CCC(C)(CCC[C@H](C)CCC[C@H](C)CCCC(C)C)O2 (stereo partly drawn) [tocopherol, α-tocopheryl acetate]				significant decrease in photohemolytic activity	
GRRRRRRRRR-NH2 [R9]					lysis with RB and peptide co-incubated ([4]; RB and R9 co-incubated during irradiation, same conditions, data not shown): 93±3%; lytic effect of peptides alone ([4]; in the dark or when cells were irradiated without RB present): not lytic by themselves
